Assays:
mice = assay: Transfection in vivo after systemic injection, luciferase activity in organs; design: unit not given here; conditions: balbc mouse, 24 hours after tail vein injection
Method: The in vivo transfections are carried out by injecting, into the vein of the tail of 30-day-old mice, 200 μl of a solution containing 0.2 mg DNA/ml combined with a cationic lipid vector. 24 hours after the injection, the mice are humanely killed and then various organs are recovered (lung, liver, heart, kidney, spleen). These organs are then ground in a lysis buffer with the aid of an Ultraturax. The ground products obtained are then centrifuged, and then 10 μl of the supernatant is collected in order to assay the luciferase activity.
We compared the gene transfer efficiencies after systemic injections of precipitated RPR 120535/DNA complexes, and of these same complexes stabilized by the addition of Pluronic F68®. […] On the other hand, when the particles are colloidally stabilized by the addition of F68®, the luciferase activity is increased by a factor of 10 in the lungs, and expression is observed in other tissues (liver, heart).
Identical experiments to those described above were carried out using another lipid: BGTC. Similar results were obtained, namely an improvement in gene transfer in the lungs and a measurable expression in the liver, the heart and the kidneys. […] Indeed, given that nonviral lipid vectors are used, these complexes might have been expected to be destabilized by the presence of these endogenous lipids in a large quantity. The results of in vivo transfection of BGTC/DOPE/DNA complexes in the absence or in the presence of poloxalkol are assembled in Table IV below: […]

[1] = Size (hydrodynamic diameter) of cationic lipid/DNA complexes by photon correlation spectroscopy; type: physicochemical; conditions: component alone incubated with 1% (weight/volume) poloxalkol
Method: The measurement of the hydrodynamic diameter is carried out with a Coulter N4Plus, using plastic cells (four transparent faces) filled with 800 μl of the various solutions, the measurement being carried out at […] in unimodal mode.
The plasmid (10 μg/ml) is placed in a solution containing 150 mM NaCl and various concentrations of poloxalkol. The lipofectant RPR 120535 is then added in order to obtain a charge ratio (+/−) 2.5. The size of the complexes is then measured by photon correlation spectroscopy according to the procedure described in Methods.
The plasmid (10 μg/ml) is placed in a solution containing 150 mM NaCl at various concentrations of poloxalkol. RPR 120531 is then added in order to obtain a charge ratio (+/−) 2.5. The size of the complexes is measured by photon correlation spectroscopy (Coulter N4plus).
Table V below represents the diameter, in nm, of the RPR 120535/DNA complexes, at the charge ratio of 2.75 (+/−) and containing 0.25 mg of DNA/ml in 150 mM NaCl, stabilized with various nonionic surface-active agents.

[2] = Structure of complexes by low-angle X-ray diffraction and cryo-transmission electron microscopy; type: physicochemical
Method: The cryo-transmission electron microscopy (cryo-TEM) experiments are carried out with 7 μl of prepared samples containing 0.5 mg of DNA/ml, which are placed on a carbon-coated copper grid covered with a membrane with holes. The grids are then immersed in liquid ethane so as to convert the liquid water to vitrified water. Next, this grid is installed inside a specimen holder cooled with liquid nitrogen and introduced into the microscope (Philips CM12) for visualization.
The low-angle X-ray diffraction experiments are carried out in the synchrotron (LURE) in Orsay (France) on the D43 line. The samples are prepared at 0.5 mg DNA/ml and then centrifuged. The pellets are deposited in a cell in which the two windows consist of kapton. A germanium-containing monochromator (111 reflection) allows the selection of the wavelength of 0.138 nm.
In this study, we have determined, by low-angle X-ray diffraction and by transmission electron microscopy, the structure of the cationic lipid transfectant/DNA complexes.

**Q.** What does the source list for `CCCCCCCCCCCCCCCCCCN(CCCCCCCCCCCCCCCCCC)C(=O)CNC(=O)CNCCCNCCCCNCCCN` [RPR 120535, H2N(CH2)3NH(CH2)4NH (CH2)3NHCH2COGlyN[(CH2)17CH3]2]?
**A.** luciferase activity, Heart (mice; 0% F68): 0; luciferase activity, Kidneys (mice; 0% F68): 0; luciferase activity, Liver (mice; 0% F68): 0; luciferase activity, Lungs (mice; 0% F68): 2 ± 0.9; luciferase activity, Heart (mice; 10% F68): 1 ± 0.4; luciferase activity, Kidneys (mice; 10% F68): 0; luciferase activity, Liver (mice; 10% F68): 2 ± 3; luciferase activity, Lungs (mice; 10% F68): 14 ± 0.9; particles detectable by Quasi-Elastic Diffusion of light [1]: does not form particles

**Q.** Which “periodicity of lamellar structure” value ([2]; in the absence and in the presence of poloxalkol) does the source give for `CC(C)CCC[C@@H](C)[C@H]1CC[C@H]2[C@@H]3CC=C4C[C@@H](OC(=O)NCCN(CCN=C(N)N)CCN=C(N)N)CC[C@]4(C)[C@H]3CC[C@]12C` [BGTC] here?
**A.** The value was 6.5 nm.

**Q.** And the size of complexes ([2]; presence of poloxalkol)?
**A.** The size of complexes was “small-sized complexes”.
